From the NIST ThermoML archive (doi:10.1016/j.tca.2015.02.014)
± gives the expanded uncertainty stated by the source.

Key:
[1] = mn = molality of the nth substance listed, in mol/kg; details: 100 kPa, Liquid; for viscosity: Capillary tube (Ostwald / Ubbelohde) method; for speed of sound: Frequency=3 MHz, Sing-around technique in a fixed-path interferometer; for mass density: Vibrating tube method
[2] = 100 kPa, Liquid, Capillary tube (Ostwald / Ubbelohde) method

| SMILES | viscosity ([1]; 293.15 K, m1 = 0.1) | speed of sound ([1]; 293.15 K, m1 = 0.1) | mass density ([1]; 293.15 K, m1 = 0.1) | viscosity ([1]; 298.15 K, m1 = 0.1) | speed of sound ([1]; 298.15 K, m1 = 0.1) | mass density ([1]; 298.15 K, m1 = 0.1) | viscosity ([1]; 303.15 K, m1 = 0.1) | speed of sound ([1]; 303.15 K, m1 = 0.1) | mass density ([1]; 303.15 K, m1 = 0.1) | viscosity ([1]; 308.15 K, m1 = 0.1) | speed of sound ([1]; 308.15 K, m1 = 0.1) | mass density ([1]; 308.15 K, m1 = 0.1) | viscosity ([1]; 313.15 K, m1 = 0.1) | speed of sound ([1]; 313.15 K, m1 = 0.1) | mass density ([1]; 313.15 K, m1 = 0.1) | viscosity ([1]; 318.15 K, m1 = 0.1) | speed of sound ([1]; 318.15 K, m1 = 0.1) | mass density ([1]; 318.15 K, m1 = 0.1) | other results |
| --- | --- | --- | --- | --- | --- | --- | --- | --- | --- | --- | --- | --- | --- | --- | --- | --- | --- | --- | --- |
| O [water] + C[C@H](CCC(=O)[O-])[C@H]1CC[C@H]2[C@@H]3CC[C@@H]4C[C@H](O)CC[C@]4(C)[C@H]3C[C@H](O)[C@]12C.[Na+] |  |  |  |  |  |  |  |  |  |  |  |  |  |  |  |  |  |  | viscosity ([1]; 293.15 K, m2 = 0): 1.002 ± 0.021 mPa·s; viscosity ([1]; 298.15 K, m2 = 0): 0.8903 ± 0.021 mPa·s; viscosity ([1]; 303.15 K, m2 = 0): 0.7973 ± 0.021 mPa·s; viscosity ([1]; 308.15 K, m2 = 0): 0.719 ± 0.021 mPa·s; viscosity ([1]; 313.15 K, m2 = 0): 0.6526 ± 0.021 mPa·s; speed of sound ([1]; 313.15 K, m2 = 0): 1529.2 ± 1.3 m/s; viscosity ([1]; 318.15 K, m2 = 0): 0.596 ± 0.021 mPa·s; speed of sound ([1]; 318.15 K, m2 = 0): 1536.5 ± 1.3 m/s; mass density ([1]; 318.15 K, m2 = 0): 990.256 ± 0.15 kg/m3 |
| O [water] + C[C@H](CCC(=O)[O-])[C@H]1CC[C@H]2[C@@H]3[C@H](O)C[C@@H]4C[C@H](O)CC[C@]4(C)[C@H]3C[C@H](O)[C@]12C.[Na+] |  |  |  |  |  |  |  |  |  |  |  |  |  |  |  |  |  |  | viscosity ([1]; 293.15 K, m2 = 0): 1.002 ± 0.021 mPa·s; viscosity ([1]; 298.15 K, m2 = 0): 0.8903 ± 0.021 mPa·s; viscosity ([1]; 303.15 K, m2 = 0): 0.7973 ± 0.021 mPa·s; viscosity ([1]; 308.15 K, m2 = 0): 0.719 ± 0.021 mPa·s; viscosity ([1]; 313.15 K, m2 = 0): 0.6526 ± 0.021 mPa·s; speed of sound ([1]; 313.15 K, m2 = 0): 1529.2 ± 1.3 m/s; viscosity ([1]; 318.15 K, m2 = 0): 0.596 ± 0.021 mPa·s; speed of sound ([1]; 318.15 K, m2 = 0): 1536.5 ± 1.3 m/s; mass density ([1]; 318.15 K, m2 = 0): 990.256 ± 0.14 kg/m3 |
| CSCC[C@H](N)C(=O)O [L-methionine] + O | 1.034 ± 0.023 mPa·s | 1493 ± 1.9 m/s | 1002.78 ± 0.43 kg/m3 | 0.92 ± 0.022 mPa·s | 1506.7 ± 2 m/s | 1001.58 ± 0.43 kg/m3 | 0.8289 ± 0.022 mPa·s | 1518.5 ± 1.9 m/s | 1000.16 ± 0.44 kg/m3 | 0.7461 ± 0.021 mPa·s | 1528.7 ± 1.9 m/s | 998.461 ± 0.43 kg/m3 | 0.6799 ± 0.021 mPa·s | 1537 ± 1.9 m/s | 996.591 ± 0.43 kg/m3 | 0.6105 ± 0.021 mPa·s | 1544.2 ± 1.9 m/s | 994.572 ± 0.43 kg/m3 |  |
| N[C@@H](Cc1c[nH]cn1)C(=O)O [L-histidine] + O | 1.052 ± 0.022 mPa·s | 1491.8 ± 1.7 m/s | 1003.99 ± 0.27 kg/m3 | 0.928 ± 0.022 mPa·s | 1505.3 ± 1.7 m/s | 1002.8 ± 0.28 kg/m3 | 0.8289 ± 0.021 mPa·s | 1517.4 ± 1.7 m/s | 1001.33 ± 0.28 kg/m3 | 0.7447 ± 0.021 mPa·s | 1527.6 ± 1.7 m/s | 999.656 ± 0.28 kg/m3 | 0.6783 ± 0.021 mPa·s | 1536.3 ± 1.7 m/s | 997.795 ± 0.28 kg/m3 | 0.5915 ± 0.021 mPa·s | 1543.8 ± 1.6 m/s | 995.765 ± 0.27 kg/m3 |  |
| NCC(=O)O [2-aminoacetic acid] + O | 1.016 ± 0.022 mPa·s | 1488.2 ± 1.7 m/s | 1001.51 ± 0.27 kg/m3 | 0.9031 ± 0.022 mPa·s | 1502.2 ± 1.7 m/s | 1000.32 ± 0.27 kg/m3 | 0.808 ± 0.021 mPa·s | 1514.4 ± 1.7 m/s |  | 0.7271 ± 0.021 mPa·s | 1525 ± 1.7 m/s |  | 0.6645 ± 0.021 mPa·s | 1533.9 ± 1.7 m/s | 995.401 ± 0.28 kg/m3 | 0.5988 ± 0.021 mPa·s | 1541.3 ± 1.6 m/s |  |  |
| O [water] |  |  |  |  |  |  |  |  |  |  |  |  |  |  |  |  |  |  | viscosity ([2]; 293.15 K): 1.002 ± 0.021 mPa·s; viscosity ([2]; 298.15 K): 0.8903 ± 0.021 mPa·s; viscosity ([2]; 303.15 K): 0.7973 ± 0.021 mPa·s; viscosity ([2]; 308.15 K): 0.719 ± 0.021 mPa·s; viscosity ([2]; 313.15 K): 0.6526 ± 0.021 mPa·s; viscosity ([2]; 318.15 K): 0.596 ± 0.021 mPa·s |
| CC(C)C[C@H](N)C(=O)O [L-leucine] + O | 1.06 ± 0.022 mPa·s | 1494.9 ± 1.7 m/s | 1000.79 ± 0.27 kg/m3 | 0.9398 ± 0.022 mPa·s | 1508.3 ± 1.7 m/s | 999.575 ± 0.27 kg/m3 | 0.8362 ± 0.022 mPa·s | 1520.2 ± 1.7 m/s | 998.115 ± 0.28 kg/m3 | 0.7509 ± 0.021 mPa·s | 1530.3 ± 1.7 m/s | 996.485 ± 0.28 kg/m3 | 0.6801 ± 0.021 mPa·s | 1538.8 ± 1.7 m/s | 994.559 ± 0.29 kg/m3 | 0.6014 ± 0.021 mPa·s | 1545.9 ± 1.6 m/s | 992.305 ± 0.28 kg/m3 |  |
